Experimental data published in ChEMBL document CHEMBL4118066, “QSAR-driven design, synthesis and discovery of potent chalcone derivatives with antitubercular activity” (Eur J Med Chem, 2017).
In brackets after ≈: the same amount, converted by molar mass.

Key:
[1] = tested on: Mycobacterium tuberculosis; test: microbe, parasite or virus in culture; format: functional; details: H37Rv ATCC 27294, 168 h
Description: Antitubercular activity against Mycobacterium tuberculosis H37Rv ATCC 27294 after 7 days under normoxic condition by microplate Alamar blue assay

[2] = tested on: Mycobacterium tuberculosis; test: Antitubercular activity against Mycobacterium tuberculosis H37Rv ATCC 27294 treated for 10 days under hypoxic condition followed by 28 hrs of normoxic recovery; format: functional
Candida albicans = test: Antifungal activity against Candida albicans ATCC 90028 after 36 to 48 hrs; format: functional
Escherichia coli = test: Antibacterial activity against Escherichia coli ATCC 25922 after 16 to 20 hrs; format: functional
Staphylococcus aureus = test: Antibacterial activity against Staphylococcus aureus ATCC 29213 after 16 to 20 hrs; format: functional
[3] = tested on: Mycolicibacterium smegmatis; test: Antimycobacterial activity against Mycobacterium smegmatis ATCC MC2155 after 7 days under normoxic condition by microplate Alamar blue assay; format: functional; details: str. MC2 155, 168 h
[4] = tested on: Mycobacteroides abscessus; test: Antimycobacterial activity against Mycobacterium abscessus ATCC 19977 after 7 days under normoxic condition by microplate Alamar blue assay; format: functional; details: ATCC 19977, 168 h
Mycobacteroides chelonae = test: Antimycobacterial activity against Mycobacterium chelonae ATCC 35752 after 7 days under normoxic condition by microplate Alamar blue assay; format: functional; details: ATCC 35752, 168 h
Mycobacterium marinum = test: Antimycobacterial activity against Mycobacterium marinum ATCC 927 after 7 days under normoxic condition by microplate Alamar blue assay; format: functional; details: ATCC 927, 168 h
Mycobacterium avium = test: Antimycobacterial activity against Mycobacterium avium ATCC 15769 after 7 days under normoxic condition by microplate Alamar blue assay; format: functional; details: ATCC 15769, 168 h
Mycobacterium kansasii = test: Antimycobacterial activity against Mycobacterium kansasii ATCC 12478 after 7 days under normoxic condition by microplate Alamar blue assay; format: functional; details: ATCC 12478, 168 h
in vitro = details: monkey, Vero cells
Description: Selectivity index, ratio of IC50 for African green monkey Vero cells to MIC90 for Mycobacterium tuberculosis H37Rv ATCC 27294 under normoxic condition

Row | SMILES | MIC90 [1] [µM] | MIC90 [2] [µM] | MIC90 (Candida albicans) [µM] | MIC90 (Escherichia coli) [µM] | MIC90 (Staphylococcus aureus) [µM] | MIC90 [3] [µM] | MIC90 [4] [µM] | MIC90 (Mycobacteroides chelonae) [µM] | MIC90 (Mycobacterium marinum) [µM] | MIC90 (Mycobacterium avium) [µM] | MIC90 (Mycobacterium kansasii) [µM] | selectivity ratio (in vitro)
1 | CC(C)(C)c1ccc(C(=O)/C=C/c2ccc[nH]2)cc1 | > 10 | > 10 | > 10 | > 10 | > 10 | > 10 | > 10 | > 10 | > 10 | > 10 | > 10 | 
2 | Cc1ccc(C(=O)/C=C/c2ccc([N+](=O)[O-])s2)cc1 | 1.87 (≈ 0.511 µg/mL) | 2.05 (≈ 0.56 µg/mL) | > 10 | > 10 | > 10 | > 10 | > 10 | > 10 | > 10 | 2.3 (≈ 0.629 µg/mL) | 1.54 (≈ 0.421 µg/mL) | 
3 | CC1(C)S[C@@H]2[C@H](NC(=O)[C@H](N)c3ccccc3)C(=O)N2[C@H]1C(=O)O [AMPICILLIN] |  |  |  | 1.18 (≈ 0.412 µg/mL) | 0.25 (≈ 0.0874 µg/mL) |  |  |  |  |  |  | 
4 | COc1ccc(/C=C/C(=O)c2cccc(I)c2)cc1 | 4.9 (≈ 1.78 µg/mL) | > 10 | > 10 | > 10 | > 10 | > 10 | > 10 | > 10 | > 10 | 9.64 (≈ 3.51 µg/mL) | 9.4 (≈ 3.42 µg/mL) | 20
5 | O=C(/C=C/c1ccc([N+](=O)[O-])o1)c1ccc(N2CCCC2)cc1 | > 10 | 4.3 (≈ 1.34 µg/mL) | > 10 | > 10 | > 10 | > 10 | > 10 | > 10 | > 10 | > 10 | 0.39 (≈ 0.122 µg/mL) | 
6 | CC(C)(C)c1ccc(C(=O)/C=C/c2ccc([N+](=O)[O-])o2)cc1 | 0.35 (≈ 0.105 µg/mL) | > 10 | > 10 | > 10 | > 10 | > 10 |  |  |  |  |  | 284
7 | O=C(/C=C/c1ccc([N+](=O)[O-])s1)c1ccc(N2CCOCC2)cc1 | > 10 | > 10 | > 10 | > 10 | > 10 | > 10 | > 10 | > 10 | > 10 | > 10 | 8.27 (≈ 2.85 µg/mL) | 
8 | NNC(=O)c1ccncc1 [ISONIAZID] | 0.41 (≈ 0.0562 µg/mL) | > 256 |  |  |  | > 10 |  |  |  |  |  | 
9 | O=C(/C=C/c1ccc([N+](=O)[O-])o1)c1ccc(C2CCCCC2)cc1 | 0.81 (≈ 0.264 µg/mL) | 3.33 (≈ 1.08 µg/mL) | > 10 | > 10 | > 10 | > 10 |  |  |  |  |  | 122
10 | CC(C)(C)c1ccc(C(=O)/C=C/c2ccco2)cc1 | > 10 | > 10 | > 10 | > 10 | > 10 | > 10 | > 10 | > 10 | > 10 | > 10 | > 10 | 
11 | O=C(/C=C/c1cccc([N+](=O)[O-])c1)c1ccc(N2CCCCC2)cc1 | > 10 | > 10 | > 10 | > 10 | > 10 | > 10 | > 10 | > 10 | > 10 | > 10 | > 10 | 
12 | COc1ccc(/C=C/C(=O)c2ccc(-c3ccccc3)cc2)cc1 | > 10 | > 10 | > 10 | > 10 | 1.18 (≈ 0.371 µg/mL) | > 10 | > 10 | > 10 | > 10 | > 10 | > 10 | 
13 | O=C(/C=C/c1ccc([N+](=O)[O-])o1)c1ccc(Br)cc1 | 2.5 (≈ 0.805 µg/mL) | 6.76 (≈ 2.18 µg/mL) | 4.93 (≈ 1.59 µg/mL) | > 10 | 0.36 (≈ 0.116 µg/mL) | 7.12 (≈ 2.29 µg/mL) |  |  |  |  |  | 
14 | O=C(/C=C/c1ccc([N+](=O)[O-])cc1)c1ccc(N2CCCCC2)cc1 | > 10 | > 10 | > 10 | > 10 | > 10 | > 10 | > 10 | > 10 | > 10 | > 10 | > 10 | 
15 | O=C(/C=C/c1ccc([N+](=O)[O-])o1)c1ccc(N2CCCCC2)cc1 | 3.42 (≈ 1.12 µg/mL) | 10.9 (≈ 3.56 µg/mL) | > 10 | > 10 | > 10 | > 10 |  |  |  |  |  | 
